The source made the active and inactive calls. The rule behind the calls is not given here.

In the assay the target is Peptidyl-prolyl cis-trans isomerase FKBP1A (Homo sapiens) (UniProt P62942). The assay is described as follows: FKBP12 binders, biophysical, NMR detection (AID 608). As to conditions: NMR binding, purified FKBP12.
Chain of Peptidyl-prolyl cis-trans isomerase FKBP1A (Homo sapiens) (P62942 whole entry, looked up): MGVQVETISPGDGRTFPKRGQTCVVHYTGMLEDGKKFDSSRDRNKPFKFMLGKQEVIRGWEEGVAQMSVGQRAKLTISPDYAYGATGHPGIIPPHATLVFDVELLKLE
Take `Cc1c(C)[n+]([O-])c(-c2ccc([N+](=O)[O-])cc2)n1O`: the Kd is > 4 mM (inactive).
To `CC(=O)CC1CCCCN1` (configuration not stated) belongs > 4 mM (inactive); to `OCc1ccccc1CN1CCOCC1`, > 4 mM (inactive); to `Cc1sc2nc(SCC(=O)N(C)C)[nH]c(=O)c2c1C`, > 4 mM (inactive).
To `COc1ccc(C[C@H]2NC[C@H](O)[C@H]2OC(C)=O)cc1` belongs > 4 mM (inactive).
As for `CN(c1ccc(C(=O)N2CCCCC2)cc1)S(C)(=O)=O`, the figure is > 4 mM (inactive); as for `Cn1c(-c2ccccc2F)n[nH]c1=S`, > 4 mM (inactive); as for `CC(C)c1c(O)ccc2c1CCC1[C@@](C)(CO)CCC[C@]21C` (some centres not stated), > 4 mM (inactive).
Regarding `Cc1ccc2c(c1)=C(c1sc(N)nc1O)C(=O)N=2`, the Kd was > 4 mM (inactive).
Turning to `C=C1C(=O)O[C@@H]2C3OC3(C)CC/C=C(\C)CC[C@@H]12` (some centres not stated), the Kd is > 4 mM (inactive).
To `c1ccc2[nH]c(NCCN3CCOCC3)nc2c1` belongs > 4 mM (inactive); to `Cc1ccc2cc(C(=O)O)ccc2n1`, > 4 mM (inactive).
`CC(=O)O[C@H]1C(=O)[C@@]2(C)C([C@H](OC(=O)c3ccccc3)[C@]3(O)C[C@H](OC(=O)[C@H](O)[C@@H](NC(=O)c4ccccc4)c4ccccc4)C(C)=C1C3(C)C)[C@]1(OC(C)=O)CO[C@@H]1C[C@@H]2O` (some centres not stated): the Kd was > 4 mM (inactive).
On to `NC1C2CC3CC1CC(O)(C3)C2` (configuration not stated), for which the Kd was > 4 mM (inactive).
To `COc1ccc2c(Cl)c(C(=O)N3CC(C)OC(C)C3)sc2c1` (configuration not stated) belongs > 13.6 mM (inactive); to `O=C(O)Cn1cc(C(=O)c2cccs2)c2ccccc21`, > 4 mM (inactive); to `O=c1c2c(nc3nc(Cc4ccccc4)[nH]n13)CCC2`, > 4 mM (inactive).
As for `Cc1ccc(Cl)cc1NS(=O)(=O)N1CCOCC1`, the figure is > 4 mM (inactive); as for `CCCCN1C(=O)C2CC/C(=N/O)CC2C1=O` (configuration not stated), > 4 mM (inactive); as for `Cc1cc(C)n2nc(-c3cccnc3)nc2n1`, > 4 mM (inactive).
With `c1ccc(C2NCCc3[nH]cnc32)cc1` (configuration not stated), the Kd was > 4 mM (inactive).
To `O=C(COc1ccccc1Cl)N1CCCC1` belongs > 4 mM (inactive); to `Cc1ccc(C)n1NC(=O)c1cccs1`, > 4 mM (inactive).
Consider `O=Cc1c(N2CCOCC2)nc2ccccn2c1=O`, for which the Kd was > 4 mM (inactive).
As for `Cc1c(O)c(O)cc2c1CC=C1[C@@]2(C)CC[C@@]2(C)C3C[C@](C)(C(=O)O)CC[C@]3(C)CC[C@]12C` (some centres not stated), the figure is > 4 mM (inactive); as for `NS(=O)(=O)c1ccccc1Cl`, > 4 mM (inactive).
As for `O=C(O)c1ccc2sccc2c1`, the figure is > 4 mM (inactive).
To `O=C(O)CCCCC1SCC2NC(=O)NC21` (configuration not stated) belongs > 4 mM (inactive); to `Cc1cc(C(=O)Nc2sc(C)c(C)c2C#N)no1`, > 4 mM (inactive).
For `NC[C@H]1O[C@H](O[C@H]2[C@H](O)[C@@H](O[C@H]3O[C@H](CO)[C@@H](O)[C@H](N)[C@H]3O)[C@H](N)C[C@@H]2N)[C@H](N)[C@@H](O)[C@@H]1O`, the Kd was > 4 mM (inactive).
As for `O=C(O)C1CN(Cc2ccccc2)CCO1` (configuration not stated), the figure is > 4 mM (inactive); as for `CC(=O)O[C@@H]1CC2C(C)(C)CCC(=O)[C@]2(C)C2CC[C@@]3(C)[C@H](c4ccoc4)OC(=O)C4OC43[C@@]21C` (some centres not stated), > 4 mM (inactive).
To `CC(C)=CCc1c2c(c3occ(-c4ccc(O)c(O)c4)c(=O)c3c1O)C=CC(C)(C)O2` belongs > 4 mM (inactive); to `CC(CCC(=O)O)[C@H]1CCC2C3C[C@H](O)[C@@H]4C[C@H](O)CC[C@]4(C)C3CC[C@@]21C` (some centres not stated), > 4 mM (inactive).
To `Nc1ccc(CN2CCS(=O)(=O)CC2)cc1` belongs > 4 mM (inactive); to `O=C1C2CC=C(Cl)CC2C(=O)N1c1ccccc1O` (configuration not stated), > 4 mM (inactive); to `C[C@H](CCC(=O)O)[C@H]1CCC2C3C(CC[C@@]21C)[C@@]1(C)CC[C@@H](O)C[C@H]1C[C@H]3O` (some centres not stated), > 4 mM (inactive).
On to `Cc1ccc2nc(SCCC#N)nc(C)c2c1`, for which the Kd was > 4 mM (inactive).
As for `c1ccc2sc(CCc3nc4ccccc4s3)nc2c1`, the entry is “inactive”.
As to `COc1cc2nc(N3CCNCC3)nc(N)c2cc1OC`, the Kd was > 4 mM (inactive).
For `O=c1cc(-c2ccc(O)cc2)oc2cc(O)cc(O)c12`, the Kd is > 4 mM (inactive).
Consider `COc1cc2c(cc1O)CC1c3c(cc(O)c(OC)c3-2)CCN1C` (configuration not stated), for which the Kd is > 4 mM (inactive).
As for `COc1ccc(S(N)(=O)=O)cc1`, the figure is > 4 mM (inactive).
Take `Oc1cc(O)c2c(c1)O[C@H](c1ccc(O)c(O)c1)[C@H](O)C2`: the Kd is > 4 mM (inactive).
`CC(=O)O[C@@H]1CC2C(C)(C)[C@H](O)C[C@H](O)[C@]2(C)C2CC[C@@]3(C)C(=CC(=O)O[C@H]3c3ccoc3)[C@@]21C` (some centres not stated): the Kd is > 4 mM (inactive).
As to `CSc1nnc2[nH]c(=O)cc(N)n12`, the Kd is > 4 mM (inactive).
To `CC(=O)c1cccc(NC2=NCC(C)(C)S2)c1` belongs > 4 mM (inactive); to `COC1=CC(C)[C@@H]2C[C@H]3OC(=O)C[C@H]4C(C)=C(OC)C(=O)C([C@@]34C)[C@@]2(C)C1=O` (some centres not stated), > 4 mM (inactive).
As for `O=P1(O)c2ccccc2Nc2ccccc21`, the figure is > 4 mM (inactive); as for `O=C(NC(=S)NC1CCS(=O)(=O)C1)c1ccccc1` (configuration not stated), > 4 mM (inactive); as for `COc1ccc(C2CC(=O)NN2)cc1OC1CCCC1` (configuration not stated), > 4 mM (inactive).
To `CC1CC2(NC(=O)NC2=O)C(C)CN1C` (configuration not stated) belongs > 4 mM (inactive); to `Cc1cc(C(F)(F)F)nn1CC(N)=O`, > 4 mM (inactive).
Consider `NCc1cccc2c1OCCO2`, for which the Kd was > 4 mM (inactive).
To `COC(=O)c1ccc(/C=C2/NC(=S)NC2=O)cc1` belongs > 4 mM (inactive); to `O=C(Nc1ccccc1[N+](=O)[O-])c1ccc(=O)[nH]n1`, > 4 mM (inactive).
For the molecule `c1ccc2c(NC3=NCCS3)cccc2c1`, the Kd was > 4 mM (inactive).
To `O=C(O)C1CC2CC1CCC2O` (configuration not stated) belongs > 4 mM (inactive); to `Cc1cc(S(=O)(=O)N2CCOCC2)ccc1F`, > 4 mM (inactive); to `c1ccc(-n2nnnc2Oc2cccc3cccnc23)cc1`, > 4 mM (inactive).
As for `Nc1ccc2c(C(F)(F)F)cc(=O)oc2c1`, the figure is > 4 mM (inactive); as for `O=S(=O)(Nc1cccnc1Cl)c1ccccc1`, > 4 mM (inactive).
On to `Cc1cccc(-n2c(N)cc(=O)[nH]c2=S)c1C`, for which the Kd was > 4 mM (inactive).
As for `Cn1c(O)c(C=NCC2CCNCC2)c(=O)n(C)c1=O`, the figure is > 4 mM (inactive).
As for `CCCCCCCCCCCCCc1ccco1`, the figure is > 4 mM (inactive); as for `COc1cc2c(cc1OC)C1=C(C#N)CCC(=O)N1CC2`, > 4 mM (inactive).
As for `Cc1cc(=O)n2[nH]c(C)cc2n1`, the figure is > 4 mM (inactive); as for `CC(C)=CCc1c2c(c3occ(-c4ccc(O)cc4)c(=O)c3c1O)C=CC(C)(C)O2`, > 4 mM (inactive); as for `Cc1nn(-c2ccccc2C(=O)O)c(=O)c2ccccc12`, > 4 mM (inactive).
As for `Cn1c(SCC(N)=O)nc2ccccc2c1=O`, the Kd is > 4 mM (inactive).
To `O=c1c2ccccc2nc2n1CCS2` belongs > 4 mM (inactive); to `Cc1occc1C(=O)N1CCC2(CC1)OCCO2`, > 4 mM (inactive); to `CC(=O)Nc1sccc1C(=O)NC(N)=O`, > 4 mM (inactive).
With `O=S(=O)(Cc1ccccc1Cl)Nc1ccccn1`, the Kd is > 4 mM (inactive).
For the molecule `CC(=O)Oc1c2c(c(CC=C(C)C)c3c1C(=O)C1=C[C@@H]4CC5C(C)(C)OC(C/C=C(\C)C(=O)O)(C4=O)[C@@]15O3)OC(C)(CCC=C(C)C)C=C2` (some centres not stated), the Kd is > 4 mM (inactive).
As for `CCCCCCCCCCCCCCCCCCOCC(O)CO` (configuration not stated), the figure is > 4 mM (inactive); as for `O=C(NCc1ccccc1Cl)c1cnn2cccnc12`, > 4 mM (inactive); as for `O=[N+]([O-])c1cccc(-c2c[n+](=O)c3c(n2[O-])CCC3)c1`, > 4 mM (inactive).
To `COC(=O)c1scc(C)c1N` belongs > 4 mM (inactive); to `CN1CCN(C(=O)/C=C\C(=O)O)CC1`, > 4 mM (inactive).
As for `O=C(NCc1cccnc1)c1ccccn1`, the figure is > 4 mM (inactive); as for `Nc1cccc2cccnc12`, > 4 mM (inactive).
On to `CC(C)=CC(=O)Nc1ccccc1Br`, for which the Kd is > 4 mM (inactive).
As for `Cc1nnsc1C(=O)O`, the figure is > 4 mM (inactive); as for `CNc1nc(OC)nc(N2CCOCC2)n1`, > 4 mM (inactive).
As for `CP(C)(=O)CCC(=O)O`, the Kd was > 4 mM (inactive).
Regarding `Nc1cccc2c(=O)[nH][nH]c(=O)c12`, the Kd is > 4 mM (inactive).
As for `COC(=O)CC1C(C)(C)C(OC(C)=O)[C@@H]2[C@@H](OC(C)=O)[C@]34O[C@@]2(O)[C@]1(C)C3CC[C@]1(C)C4=CC(=O)O[C@H]1c1ccoc1` (some centres not stated), the figure is > 4 mM (inactive); as for `Cc1cccc(NC(=O)CN2C(=O)CNC2=O)c1`, > 4 mM (inactive); as for `O=S(=O)(N1CCOCC1)n1cnc2ccccc21`, “inactive”.
In the case of `CC1=NN2C(=N)CC(=O)N=C2S1`, the Kd was > 4 mM (inactive).
To `NC(=O)Cc1nc(-c2ccccc2)cs1` belongs > 4 mM (inactive); to `Nc1nnc(SCc2ccc3c(c2)OCO3)s1`, > 4 mM (inactive).
To `C=C[C@H]1CN2CC[C@H]1C[C@@H]2[C@H](O)c1ccnc2ccccc12` belongs > 4 mM (inactive).
Turning to `COc1c(OC)c2occc2c2oc(=O)ccc12`, the Kd is > 4 mM (inactive).
As to `O=S(=O)(Nc1ccc(Br)cc1)N1CCOCC1`, the Kd result was “inactive”.
For the molecule `O=C1C2C3CCC(O3)C2C(=O)N1c1ccccc1` (configuration not stated), the Kd was > 4 mM (inactive).

These data come from PubChem BioAssay AID608 (Sanford-Burnham Center for Chemical Genomics, 2007).
